Laboratory results as given in US20250282720A1, “ALKYLSULFENYL THIOCARBONATES: PRECURSORS TO HYDROPERSULFIDES POTENTLY ATTENUATE OXIDATIVE STRESS” (The Johns Hopkins University, priority 2021, published 2025).
Entries after “also recorded” stand apart in the source; their conditions may differ.

Columns and labels:
[1] = test system: transferrin receptor 1 (TFR1); experiment: TFR1 protein expression, immunoblot; assay type: cell-based, human; conditions: 25 and 50 μM for 4 h, erastin 24 h
Experimental: FIG. 14A, FIG. 14B, FIG. 14C, and FIG. 14D show: FIG. 14A and FIG. 14B pretreatment of AST (25 and 50 μM) for 4 h followed by 24 h treatment with erastin ([…]) immunoblots for indicated proteins of lysates derived from FA fibroblasts. FIG. 14C and FIG. 14D, relative abundance of TFR1 and FTH1 proteins normalized to β-actin loading control. Results are the means+SEM of n=3 for all concentrations. *P<0.05, **P<0.005, comparisons with the erastin group. Group comparisons are determined by a one-way analysis of variance (ANOVA) with Dunnet's correction post-hoc test using GraphPad Prism 8. Samples were run on the same gel for SDS-Page gel electrophoresis in nonconsecutive lanes;
To test this hypothesis, we studied the effect of RSSH on TFR1 and FTH1 expression levels. We anticipated that the impacts of RSSH would result in downregulation of TFR1 and upregulation of FTH1. […] Feng et al., 2020; Park and Chung, 2019.

[2] = Kinetics of RSSH release (precursor hydrolysis) in the presence of MMTS, monitored by HPLC; assay type: physicochemical
Experimental: After confirming RSSH generation from 1a, the kinetics of RSSH release from alkylsulfenyl thiocarbonates in the presence of MMTS was analyzed by high-performance liquid chromatography (HPLC). Due to the lack of a chromophore in MMTS adduct 7, the decay of the RSSH precursor and formation of the corresponding phenol byproduct was monitored. First-order rate constants were obtained by plotting the precursor decay and phenol byproduct formation as a function of time. […] The observation of similar rate constants for both 1a decay and phenol (4a) formation indicates a rapid reaction of relased RSSH with MMTS, and that these observed rate constants indicate the RSSH release rate. Importantly, 92% of the byproduct phenol 4a is observed. In addition, the effect of pH on the kinetics of RSSH release also was examined.
The RSSH release kinetics for precursors containing a variety of para-substituted phenols were then compared. It was hoped to decrease the rate of RSSH release through the introduction of electron-donating groups. Indeed, a small decrease in the RSSH release rate from 1b, equipped with a 4-Me substituent (137±4 min) (Table 1) was observed.
MMTS (100 μL, 50 mM) was added in pH 7.4 phosphate buffer saline (4.85 mL) containing the DTPA (100 μM) as metal chelator. This solution was preincubated for 10 min at 37° C. and then precursor 1a-f or 8 (50 μL, 10 mM) were independently added into the mixture (total volume=5 mL). The resulting solution was incubated at 37° C. At different time points, an aliquot of 300 μL was taken and quenched with 300 μL 0.1% formic acid solution. These samples were stored at 0° C. until HPLC analysis was performed. The sample (20 μL) was injected into a high-performance liquid chromatography (HPLC) equipped with Phenomenex C-18 reverse phase column (250 mm×4.6 mm, 5 μm). HPLC Method: mobile phase A (H2O) and mobile phase B (ACN), flow rate: 1 mL/min, run time: 21 min, the gradient elution method: 10% to 70% B from 0 to 10 min, 70% to 90% B from 10 to 21 min. The elution was monitored by a UV detector at 240 and 275 nm. First-order rate constants were obtained by plotting the precursor decay and phenol by-product formation as a function of time.

H9c2 cardiac myoblasts = experiment: Intracellular sulfane sulfur detection using the SSP4 probe; assay type: cell-based, rat; set-up: SSP4 fluorescence signal (intracellular sulfane sulfur): dose or concentration left out as unconfirmed
Experimental: Increased intracellular RSSH levels resulting from incubation with 1a utilizing SSP4, a fluorescent probe that has been used to detect of intracellular sulfane sulfur, Chen et al., 2013; Marutani et al., 2014, also was tested. Sulfane sulfur refers to a sulfur atom with six valence electrons and no charge. Biologically important sulfane sulfur compounds include RSSH, polysulfides (RSnSH or RSSnSR, n≥1), inorganic polysulfides (HSSnH, n≥1), and elemental sulfur (S8). Briefly, cells were incubated with SSP4 in the presence of cetrimonium bromide (CTAB) for 20 min and then washed with serum-free media before 1a is introduced. A significant increase of the SSP4 fluorescence signal was not observed following treatment with […] 1a due to the low amount of RSSH released at this concentration falling below the detection limit of the probe (FIG. 6). […] Since the SSP4 probe is known to react with a variety of sulfane sulfur species, the fluorescence signal observed upon treatment of 1a is likely due to RSSH and/or other sulfane sulfur species that might be present in the equilibrium with RSSH (e.g., Scheme 1-5). Thus, it is thought that the cytoprotective effects of 1a are attributed to increasing sulfane sulfur pools within the cultured cells.
Cells were seeded at a density of 1.5×10^4 cells/well. […] The fluorescence readings were obtained at 482Ex/515Em.

aconitase = experiment: Aconitase protein expression, immunoblot; assay type: cell-based, human
Experimental: Mitochondrial aconitase levels are unaffected by treatment of AST and H2O2. Immunoblot analysis was conducted utilizing enriched-mitochondrial pellets. Results are expressed as SEM with n≥3 for all concentrations;
Given these encouraging results, it was critical to determine whether the RSSH's positive impact on aconitase activity was due to enhanced Fe—S cluster biosynthesis or increased aconitase expression.

FA fibroblasts = experiment: Protection against erastin-induced ferroptosis in FA fibroblasts; assay type: cell-based, human; conditions: 25 μM and 50 μM, 4 h pretreatment, erastin 24 h
Experimental: FIG. 10A, pretreatment of AST with varying concentrations in FA fibroblasts (GM04078, Coriell Institute) for 4 h followed by 4 h treatment with H2O2. Viability was measured using CCK8 assay. FIG. 10B, pretreatment of AST with varying concentrations in FA fibroblasts for 4 h followed by treatment with erastin for 24 h. Results are expressed as SEM with n≥3 for all concentrations. **P<0.005, for comparisons with the erastin group. Group comparisons are determined by a one-way analysis of variance (ANOVA) with Dunnet's correction post-hoc test using GraphPad Prism 8;
We next sought to determine whether AST would protect FA fibroblasts against erastin-induced cell death. Erastin is an inducer of ferroptosis, an iron-dependent form of cell death. It acts as an inhibitor of the cystine glutamate antiporter (system Xc), inhibiting the import of cystine, which leads to downstream depletion of glutathione (GSH) and ultimately to elevated ROS production.

[3] = 10 equiv MMTS, PBS pH 7.4, 100 mM

Q: With COC(=O)C(NC(C)=O)C(C)(C)SSC(=O)Oc1ccccc1 (stereo not shown) [Precursor 1a, Methyl 2-acetamido-3-methyl-3-((phenoxycarbonyl)disulfaneyl)butanoate] as the compound, how does the TFR1 protein level [1] read?
A: three-fold decrease

Q: And the “first-order rate constant k, disappearance of precursor” value [2, 3]?
A: 0.00539 min⁻¹

Q: And the “first-order rate constant k, formation of phenol” value [2, 3]?
A: 0.00533 min⁻¹

Q: And the t1/2 of hydrolysis ([2]; pH 6.0)?
A: 26.65 ± 0.8 h

Q: And the t1/2 of hydrolysis ([2]; pH 8.0)?
A: 0.617 ± 0.05 h

Q: And the “SSP4 fluorescence signal (intracellular sulfane sulfur)” value (H9c2 cardiac myoblasts)?
A: not observed

Q: What about the “SSP4 fluorescence intensity (intracellular sulfane sulfur)” value (H9c2 cardiac myoblasts; 100 and 200 mM, over a period of 3 h) of the same compound?
A: Dose-dependent increases in fluorescence intensity

Q: What about the aconitase protein expression (aconitase; 25 μM, 12 h pretreatment, 12 h H2O2, listed as AST) of the same compound?
A: does not alter aconitase protein expression; also recorded: unaffected

Q: What about the aconitase expression levels (aconitase; in combination with erastin) of the same compound?
A: no significant impact

Q: What about the “protection against erastin-induced ferroptosis” value (FA fibroblasts) of the same compound?
A: nearly complete protection
